Data from patent US20080280926A1, “Phosphodiesterase Inhibitors” (priority 2003, published 2008).

Row | SMILES | melting point
1 | CC(C)(C)C(=O)Nc1ncnc2c1nc(-n1cccn1)n2Cc1ccccc1 [Compound No. 1, N-(9-Benzyl-8-pyrazol-1-yl-9H-purin-6-yl)-2,2-dimethylpropionamide] | 124 to 125 °C
2 | C=CCNC(=O)Nc1ncnc2c1nc(-n1cccn1)n2Cc1ccccc1 [Compound No. 12, 1-Allyl-3-(9-benzyl-8-pyrazol-1-yl-9H-purin-6-yl)-urea] | 189.5 to 199 °C
